Results taken from US9081736B2, “Modeling of mPGES-1 three-dimensional structures: applications in drug design and discovery” (The University of Kentucky Research Foundation, priority 2007, dated 2015).
Numbering of substitutions follows the chain as printed.

Legend:
mPGES-1 Q134E mutant = target: T1, mPGES-1 Q134E mutant (Homo sapiens, UniProt O14684, Q134E); assay: Activity assay, saturation kinetics for PGH2, Q134E mutant; format: biochemical; conditions: 2.5 mM GSH, 1-500 μM PGH2, errors expected to be very large, read-out: Experimental KM, this work
T1 sequence (O14684 1-152 Q134E): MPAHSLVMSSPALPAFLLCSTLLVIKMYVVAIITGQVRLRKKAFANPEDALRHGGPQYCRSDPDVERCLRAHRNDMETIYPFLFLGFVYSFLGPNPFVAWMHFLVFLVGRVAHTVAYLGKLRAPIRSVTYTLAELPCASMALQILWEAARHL
Procedure: (§1) Expression and Preparation for the Membrane Fraction of mPGES-1 and its Mutants in E. coli: The wild-type mPGES-1 and its mutant plasmids from XLI-Blue were transformed into M15 E. coli cells. Cells were grown in 500 ml TB media containing 100 μg/ml ampicillin and 25 μg/ml kanamycin at 37° C. with shaking at 270 rpm until OD reached 0.8. IPTG was added to a final concentration of 2 mM and cells were allowed to grow for additional 3 hours at 37° C. Cells were then harvested by centrifugation at 5000 g for 15 min at 4° C. […] The cells were broken by sonication, and then the cell lysate was cleared by centrifugation at 12,500 g for 10 min. […] Total protein concentration of the membrane fraction was determined by coomassie protein assay according to the manufacture's instruction (Bio-Rad) with BSA as a standard.
(§2) The reaction contents were 1:2500 diluted, from which 50 μl aliquot was used for quantification of […] concentration by EIA assay. […] The KM values of wild-type mPGES-1 and its mutants were calculated by using the GraphPad Prism 4.01 program.

wild-type mPGES-1 = target: T2, wild-type mPGES-1 (Homo sapiens, UniProt O14684); assay: Activity assay, saturation kinetics for PGH2, wild-type mPGES-1; format: biochemical; design: The specific oligonucleotide primers to full length of mPGES-1 were synthesized; made in house; host or cells: E. coli M15 (membrane fraction); conditions: 2.5 mM GSH, 1-500 μM PGH2, on ice, read-out: Experimental KM, this work
T2 sequence (O14684 1-152): T1 sequence (O14684 1-152 Q134E) with E134Q
Procedure: as §1, §2

mPGES-1 Q36E mutant = target: T3, mPGES-1 Q36E mutant (Homo sapiens, UniProt O14684, Q36E); assay: Activity assay, saturation kinetics for PGH2, Q36E mutant; format: biochemical; conditions: 2.5 mM GSH, 1-500 μM PGH2, errors expected to be very large, read-out: Experimental KM, this work
T3 sequence (O14684 1-152 Q36E): T1 sequence (O14684 1-152 Q134E) with Q36E, E134Q
Procedure: as §1, §2

mPGES-1 = target: T4, mPGES-1 (Homo sapiens, UniProt O14684); conditions: background statement; not selective for mPGES-1; cited from earlier work
T4 sequence (O14684 1-152): T1 sequence (O14684 1-152 Q134E) with E134Q

Row | Compound | Km (mPGES-1 Q134E mutant) | Km (wild-type mPGES-1) | Km (mPGES-1 Q36E mutant) | Ability to inhibit mPGES-1 (mPGES-1)
1 | CCCCC[C@H](O)/C=C/[C@@H]1[C@@H](C/C=C\CCCC(=O)O)[C@@H]2C[C@H]1OO2 [PGH2, prostaglandin H2] | ~734 µM | 130 µM | ~1610 µM | 
2 | CS(=O)(=O)Nc1ccc([N+](=O)[O-])cc1OC1CCCCC1 [NS-398] |  |  |  | able to inhibit mPGES-1
